System: BJ, HEK293, HEP G2, and Raji cell lines
Experiment: Cytotoxicity
Type: cell-based, human
Conditions: four mammalian cell lines (BJ, HEK293, HEP G2, Raji)

Structure (SMILES): Cc1cc(NC(=O)Nc2cccc(OC(F)(F)F)c2)c2ccccc2n1 [4{13, 34}]
- mammalian cytotoxicity (in words): weak
